Results taken from article PMC9019041, “Structural insights into the peptide selectivity and activation of human neuromedin U receptors” (Nature Communications, 2022).
Where no end group is shown, it is not given here.

How the values were obtained:
Assay type in all cases: cell-based
Settings in all cases: mean ± S.E.M., three independent experiments (n=3), SEM, read-out: IP1 accumulation pEC50 ± S.E.M. (converted)
NMUR2 F44A = biological target: T1, NMUR2 F44A (Homo sapiens, UniProt Q9GZQ4, F44A); test: IP-One assay, NMUR2 F44A
T1 construct: The full-length human NMUR1 and NMUR2 were modified; expressed in transfected cells; host or cells: AD293 cells
Method: (§1) IP-One production was measured using the IP-One HTRF kit (Cisbio)[62]. Briefly, AD293 cells (Agilent) were grown to a density of 400,000–500,000 cells per mL and then infected with separate plasmids at a suitable concentration. The culture was collected by centrifugation 24 h after incubation at 37 °C in 5% CO2 with a Stimulation Buffer. The cell suspension was then dispensed in a white 384-well plate at a volume of 7 μl per well before adding 7 μl of ligands. The mixture was incubated for 1 h at 37 °C. IP-One-d2 and anti-IP-One Cryptate dissolved in Lysis Buffer (3 μl each) were subsequently added and incubated for 15-30 min at room temperature before measurement. Intracellular IP-One measurement was carried with the IP-One HTRF kit and EnVision multi-plate reader (PerkinElmer) according to the manufacturer’s instructions. Data were normalized to the baseline response of the ligand.
(§2) The significance was determined with two-side, one-way ANOVA with Tukey’s test, and ^*P < 0.05 was considered statistically significant.

NMUR1 W320A = biological target: T2, NMUR1 W320A (Homo sapiens, UniProt Q9HB89, W320A); test: IP-One assay, NMUR1 W320A
T2 construct: The full-length human NMUR1 and NMUR2 were modified; expressed in transfected cells; host or cells: AD293 cells
Method: as §1, §2

NMUR1 H338A = biological target: T3, NMUR1 H338A (Homo sapiens, UniProt Q9HB89, H338A); test: IP-One assay, NMUR1 H338A
T3 construct: The full-length human NMUR1 and NMUR2 were modified; expressed in transfected cells; host or cells: AD293 cells
Method: as §1, §2

NMUR2 T205A = biological target: T4, NMUR2 T205A (Homo sapiens, UniProt Q9GZQ4, T205A); test: IP-One assay, NMUR2 T205A
T4 construct: expressed in transfected cells; host or cells: AD293 cells
Method: as §1, §2

NMUR1 F345A = biological target: T5, NMUR1 F345A (Homo sapiens, UniProt Q9HB89, F345A); test: IP-One assay, NMUR1 F345A
T5 construct: The full-length human NMUR1 and NMUR2 were modified; expressed in transfected cells; host or cells: AD293 cells
Method: as §1, §2

NMUR2 F126A = biological target: T6, NMUR2 F126A (Homo sapiens, UniProt Q9GZQ4, F126A); test: IP-One assay, NMUR2 F126A
T6 construct: expressed in transfected cells; host or cells: AD293 cells
Method: as §1, §2

NMUR1 E120A = biological target: T7, NMUR1 E120A (Homo sapiens, UniProt Q9HB89, E120A); test: IP-One assay, NMUR1 E120A
T7 construct: The full-length human NMUR1 and NMUR2 were modified; expressed in transfected cells; host or cells: AD293 cells
Method: as §1, §2

NMUR2 F316A = biological target: T8, NMUR2 F316A (Homo sapiens, UniProt Q9GZQ4, F316A); test: IP-One assay, NMUR2 F316A
T8 construct: expressed in transfected cells; host or cells: AD293 cells (Agilent)
Method: as §1, §2

NMUR1 V339A = biological target: T9, NMUR1 V339A (Homo sapiens, UniProt Q9HB89, V339A); test: IP-One assay, NMUR1 V339A
T9 construct: The full-length human NMUR1 and NMUR2 were modified; expressed in transfected cells; host or cells: AD293 cells
Method: as §1, §2

NMUR2 H309A = biological target: T10, NMUR2 H309A (Homo sapiens, UniProt Q9GZQ4, H309A); test: IP-One assay, NMUR2 H309A
T10 construct: expressed in transfected cells; host or cells: AD293 cells
Method: as §1, §2

NMUR2 N181A = biological target: T11, NMUR2 N181A (Homo sapiens, UniProt Q9GZQ4, N181A); test: IP-One assay, NMUR2 N181A
T11 construct: expressed in transfected cells; host or cells: AD293 cells
Method: as §1, §2

NMUR2 E127A = biological target: T12, NMUR2 E127A (Homo sapiens, UniProt Q9GZQ4, E127A); test: IP-One assay, NMUR2 E127A
T12 construct: expressed in transfected cells; host or cells: AD293 cells
Method: as §1, §2

NMUR1 Y346A = biological target: T13, NMUR1 Y346A (Homo sapiens, UniProt Q9HB89, Y346A); test: IP-One assay, NMUR1 Y346A
T13 construct: The full-length human NMUR1 and NMUR2 were modified; expressed in transfected cells; host or cells: AD293 cells
Method: as §1, §2

NMUR2 V310A = biological target: T14, NMUR2 V310A (Homo sapiens, UniProt Q9GZQ4, V310A); test: IP-One assay, NMUR2 V310A
T14 construct: expressed in transfected cells; host or cells: AD293 cells
Method: as §1, §2

NMUR1 F334A = biological target: T15, NMUR1 F334A (Homo sapiens, UniProt Q9HB89, F334A); test: IP-One assay, NMUR1 F334A
T15 construct: The full-length human NMUR1 and NMUR2 were modified; expressed in transfected cells; host or cells: AD293 cells
Method: as §1, §2

NMUR1 H331A = biological target: T16, NMUR1 H331A (Homo sapiens, UniProt Q9HB89, H331A); test: IP-One assay, NMUR1 H331A
T16 construct: The full-length human NMUR1 and NMUR2 were modified; expressed in transfected cells; host or cells: AD293 cells
Method: as §1, §2

NMUR1 F141A = biological target: T17, NMUR1 F141A (Homo sapiens, UniProt Q9HB89, F141A); test: IP-One assay, NMUR1 F141A
T17 construct: The full-length human NMUR1 and NMUR2 were modified; expressed in transfected cells; host or cells: AD293 cells
Method: as §1, §2

NMUR2 A302G = biological target: T18, NMUR2 A302G (Homo sapiens, UniProt Q9GZQ4, A302G); test: IP-One assay, NMUR2 A302G
T18 construct: expressed in transfected cells; host or cells: AD293 cells
Method: as §1, §2

NMUR1 Y125A = biological target: T19, NMUR1 Y125A (Homo sapiens, UniProt Q9HB89, Y125A); test: IP-One assay, NMUR1 Y125A
T19 construct: The full-length human NMUR1 and NMUR2 were modified; expressed in transfected cells; host or cells: AD293 cells
Method: as §1, §2

NMUR2 R288A = biological target: T20, NMUR2 R288A (Homo sapiens, UniProt Q9GZQ4, R288A); test: IP-One assay, NMUR2 R288A
T20 construct: expressed in transfected cells; host or cells: AD293 cells
Method: as §1, §2

NMUR2 E105A = biological target: T21, NMUR2 E105A (Homo sapiens, UniProt Q9GZQ4, E105A); test: IP-One assay, NMUR2 E105A
T21 construct: expressed in transfected cells; host or cells: AD293 cells
Method: as §1, §2

NMUR1 E142A = biological target: T22, NMUR1 E142A (Homo sapiens, UniProt Q9HB89, E142A); test: IP-One assay, NMUR1 E142A
T22 construct: The full-length human NMUR1 and NMUR2 were modified; expressed in transfected cells; host or cells: AD293 cells
Method: as §1, §2

NMUR1 Q335A = biological target: T23, NMUR1 Q335A (Homo sapiens, UniProt Q9HB89, Q335A); test: IP-One assay, NMUR1 Q335A
T23 construct: The full-length human NMUR1 and NMUR2 were modified; expressed in transfected cells; host or cells: AD293 cells
Method: as §1, §2

NMUR2 F305A = biological target: T24, NMUR2 F305A (Homo sapiens, UniProt Q9GZQ4, F305A); test: IP-One assay, NMUR2 F305A
T24 construct: expressed in transfected cells; host or cells: AD293 cells
Method: as §1, §2

NMUR2 N109A = biological target: T25, NMUR2 N109A (Homo sapiens, UniProt Q9GZQ4, N109A); test: IP-One assay, NMUR2 N109A
T25 construct: expressed in transfected cells; host or cells: AD293 cells
Method: as §1, §2

NMUR1 D316A = biological target: T26, NMUR1 D316A (Homo sapiens, UniProt Q9HB89, D316A); test: IP-One assay, NMUR1 D316A
T26 construct: The full-length human NMUR1 and NMUR2 were modified; expressed in transfected cells; host or cells: AD293 cells
Method: as §1, §2

T9 sequence (Q9HB89 whole entry V339A): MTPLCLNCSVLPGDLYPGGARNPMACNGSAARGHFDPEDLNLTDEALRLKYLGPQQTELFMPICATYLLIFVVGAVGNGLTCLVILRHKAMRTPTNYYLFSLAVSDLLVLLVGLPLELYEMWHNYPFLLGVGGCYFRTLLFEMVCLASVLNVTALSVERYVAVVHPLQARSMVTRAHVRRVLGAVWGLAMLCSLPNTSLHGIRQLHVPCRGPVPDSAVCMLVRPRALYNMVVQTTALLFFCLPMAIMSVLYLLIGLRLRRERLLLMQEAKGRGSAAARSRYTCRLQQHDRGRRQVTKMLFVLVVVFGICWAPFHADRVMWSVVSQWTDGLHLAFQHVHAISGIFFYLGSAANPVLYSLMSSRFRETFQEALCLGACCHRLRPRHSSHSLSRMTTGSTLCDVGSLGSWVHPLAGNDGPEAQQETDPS
T18 sequence (Q9GZQ4 whole entry A302G): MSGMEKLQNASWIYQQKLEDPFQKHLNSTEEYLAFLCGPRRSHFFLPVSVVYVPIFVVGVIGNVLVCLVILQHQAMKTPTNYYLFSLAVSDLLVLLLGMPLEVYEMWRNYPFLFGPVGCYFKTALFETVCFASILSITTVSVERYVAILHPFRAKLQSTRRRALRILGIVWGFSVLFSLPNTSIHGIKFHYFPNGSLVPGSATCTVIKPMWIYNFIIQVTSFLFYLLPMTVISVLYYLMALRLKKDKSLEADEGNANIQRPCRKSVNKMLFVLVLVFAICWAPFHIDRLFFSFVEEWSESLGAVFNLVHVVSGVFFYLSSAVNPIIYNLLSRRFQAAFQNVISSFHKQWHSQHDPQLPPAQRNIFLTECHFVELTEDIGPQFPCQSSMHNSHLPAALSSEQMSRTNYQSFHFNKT
T17 sequence (Q9HB89 whole entry F141A): as the sequence (Q9HB89 whole entry V339A) above, with F141A, A339V counted along it
T7 sequence (Q9HB89 whole entry E120A): as the sequence (Q9HB89 whole entry V339A) above, with E120A, A339V counted along it
T21 sequence (Q9GZQ4 whole entry E105A): as the sequence (Q9GZQ4 whole entry A302G) above, with E105A, G302A counted along it
T2 sequence (Q9HB89 whole entry W320A): as the sequence (Q9HB89 whole entry V339A) above, with W320A, A339V counted along it
T13 sequence (Q9HB89 whole entry Y346A): as the sequence (Q9HB89 whole entry V339A) above, with A339V, Y346A counted along it
T15 sequence (Q9HB89 whole entry F334A): as the sequence (Q9HB89 whole entry V339A) above, with F334A, A339V counted along it
T4 sequence (Q9GZQ4 whole entry T205A): as the sequence (Q9GZQ4 whole entry A302G) above, with T205A, G302A counted along it
T11 sequence (Q9GZQ4 whole entry N181A): as the sequence (Q9GZQ4 whole entry A302G) above, with N181A, G302A counted along it
T24 sequence (Q9GZQ4 whole entry F305A): as the sequence (Q9GZQ4 whole entry A302G) above, with G302A, F305A counted along it
T26 sequence (Q9HB89 whole entry D316A): as the sequence (Q9HB89 whole entry V339A) above, with D316A, A339V counted along it
T23 sequence (Q9HB89 whole entry Q335A): as the sequence (Q9HB89 whole entry V339A) above, with Q335A, A339V counted along it
T14 sequence (Q9GZQ4 whole entry V310A): as the sequence (Q9GZQ4 whole entry A302G) above, with G302A, V310A counted along it
T16 sequence (Q9HB89 whole entry H331A): as the sequence (Q9HB89 whole entry V339A) above, with H331A, A339V counted along it
T25 sequence (Q9GZQ4 whole entry N109A): as the sequence (Q9GZQ4 whole entry A302G) above, with N109A, G302A counted along it
T3 sequence (Q9HB89 whole entry H338A): as the sequence (Q9HB89 whole entry V339A) above, with H338A, A339V counted along it
T20 sequence (Q9GZQ4 whole entry R288A): as the sequence (Q9GZQ4 whole entry A302G) above, with R288A, G302A counted along it
T19 sequence (Q9HB89 whole entry Y125A): as the sequence (Q9HB89 whole entry V339A) above, with Y125A, A339V counted along it
T10 sequence (Q9GZQ4 whole entry H309A): as the sequence (Q9GZQ4 whole entry A302G) above, with G302A, H309A counted along it
T5 sequence (Q9HB89 whole entry F345A): as the sequence (Q9HB89 whole entry V339A) above, with A339V, F345A counted along it
T8 sequence (Q9GZQ4 whole entry F316A): as the sequence (Q9GZQ4 whole entry A302G) above, with G302A, F316A counted along it
T12 sequence (Q9GZQ4 whole entry E127A): as the sequence (Q9GZQ4 whole entry A302G) above, with E127A, G302A counted along it
T22 sequence (Q9HB89 whole entry E142A): as the sequence (Q9HB89 whole entry V339A) above, with E142A, A339V counted along it
T6 sequence (Q9GZQ4 whole entry F126A): as the sequence (Q9GZQ4 whole entry A302G) above, with F126A, G302A counted along it
T1 sequence (Q9GZQ4 whole entry F44A): as the sequence (Q9GZQ4 whole entry A302G) above, with F44A, G302A counted along it

Q: For “FRVDEEFQSPFASQSRGYFLFRPRN-NH2 [NMU, neuromedin U]”, which EC50 (NMUR2 F44A) is on record?
A: The EC50 was 102 nM.

Q: What about the EC50 (NMUR1 W320A) of the same substance?
A: Its EC50 is 2880 nM.

Q: What about the EC50 (NMUR1 H338A) of the same substance?
A: Its EC50 is 29.5 nM.

Q: What about the EC50 (NMUR2 T205A) of the same substance?
A: The EC50 was 1.95 nM.

Q: What about the EC50 (NMUR1 F345A) of the same substance?
A: The EC50 was 1480 nM.

Q: What about the EC50 (NMUR2 F126A) of the same substance?
A: The EC50 was 2 nM.

Q: What about the EC50 (NMUR1 E120A) of the same substance?
A: Its EC50 is 10.7 nM.

Q: And the EC50 (NMUR2 F316A)?
A: The EC50 was 8.71 nM.

Q: What about the EC50 (NMUR1 V339A) of the same substance?
A: The EC50 was 11.5 nM.

Q: And the EC50 (NMUR2 H309A)?
A: The EC50 was 0.646 nM.

Q: And the EC50 (NMUR2 N181A)?
A: Its EC50 is 2.75 nM.

Q: What about the EC50 (NMUR2 E127A) of the same substance?
A: Its EC50 is 43.7 nM.

Q: And the EC50 (NMUR1 Y346A)?
A: Its EC50 is 155 nM.

Q: And the EC50 (NMUR2 V310A)?
A: Its EC50 is 0.631 nM.

Q: What about the EC50 (NMUR1 F334A) of the same substance?
A: The EC50 was 85.1 nM.

Q: What about the EC50 (NMUR1 H331A) of the same substance?
A: Its EC50 is 11.5 nM.

Q: What about the EC50 (NMUR1 F141A) of the same substance?
A: Its EC50 is 115 nM.

Q: And the EC50 (NMUR2 A302G)?
A: Its EC50 is 70.8 nM.

Q: What about the EC50 (NMUR1 Y125A) of the same substance?
A: Its EC50 is 20 nM.

Q: What about the EC50 (NMUR2 R288A) of the same substance?
A: Its EC50 is 33.1 nM.

Q: What about the EC50 (NMUR2 E105A) of the same substance?
A: Its EC50 is 11.7 nM.

Q: What about the EC50 (NMUR1 E142A) of the same substance?
A: The EC50 was 47.9 nM.

Q: What about the EC50 (NMUR1 Q335A) of the same substance?
A: The EC50 was 18.2 nM.

Q: What about the EC50 (NMUR2 F305A) of the same substance?
A: The EC50 was 12.3 nM.

Q: What about the EC50 (NMUR2 N109A) of the same substance?
A: The EC50 was 7.24 nM.

Q: What about the EC50 (NMUR1 D316A) of the same substance?
A: The EC50 was 10.5 nM.
